Data from ChEMBL document CHEMBL1201862, “PubChem BioAssay data set” (2004).
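A five-concentration, 48-hour dose response in 96-well plates underlies each endpoint, interpolated linearly between surrounding concentrations. Here, GI50 denotes the concentration required for 50% inhibition of growth.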 Active and inactive are the calls of the source. Cut-off read from the data, not from the text of the source: active = GI50 up to about 1.1 µM and inactive = higher.

Key:
Experiment in all cases: inhibition of tumour cell growth, NCI panel, 48 h
[1] = tested on: MOLT-4
[2] = tested on: KM12
[3] = tested on: ACHN
[4] = tested on: SNB-75
[5] = tested on: LOX IMVI
[6] = tested on: DLD-1
[7] = tested on: RXF 393
[8] = tested on: M14
[9] = tested on: K562
[10] = tested on: SK-OV-3
[11] = tested on: SK-MEL-28
[12] = tested on: SW-620
[13] = tested on: HOP-92
[14] = tested on: SR
[15] = tested on: EKVX
[16] = tested on: MDA-MB-231
[17] = tested on: PC-3
[18] = tested on: MDA-MB-435
[19] = tested on: DU-145
[20] = tested on: BT-549

SMILES | GI50 [1] | GI50 [2] | GI50 [3] | GI50 [4] | GI50 [5] | GI50 [6] | GI50 [7] | GI50 [8] | GI50 [9] | GI50 [10] | GI50 [11] | GI50 [12] | GI50 [13] | GI50 [14] | GI50 [15] | GI50 [16] | GI50 [17] | GI50 [18] | GI50 [19] | GI50 [20]
O=C(CSc1nnc(Cc2ccccc2)o1)Nc1cccc([N+](=O)[O-])c1 | > 100 µM (inactive) | > 100 µM (inactive) | > 100 µM (inactive) | 58.5 µM (inactive) | > 100 µM (inactive) | > 100 µM (inactive) | > 100 µM (inactive) | > 100 µM (inactive) | > 100 µM (inactive) | > 100 µM (inactive) | > 100 µM (inactive) |  |  |  |  |  |  |  |  | 
CCOc1ccc(NCC(=O)N2CC(=O)Nc3ccccc32)cc1 | > 100 µM (inactive) | > 100 µM (inactive) | > 100 µM (inactive) | > 100 µM (inactive) | > 100 µM (inactive) | > 100 µM (inactive) | > 100 µM (inactive) | > 100 µM (inactive) | > 100 µM (inactive) | > 100 µM (inactive) | > 100 µM (inactive) | > 100 µM (inactive) | > 100 µM (inactive) | > 100 µM (inactive) | > 100 µM (inactive) |  |  |  |  | 
COc1cc(NC(C)=O)c2[nH]c3c(C)cc(NC(C)=O)c(C)c3c2c1 | > 100 µM (inactive) | > 100 µM (inactive) | > 100 µM (inactive) | > 100 µM (inactive) |  | > 100 µM (inactive) | > 100 µM (inactive) | > 100 µM (inactive) | > 100 µM (inactive) | > 100 µM (inactive) | > 100 µM (inactive) | > 100 µM (inactive) | > 100 µM (inactive) |  | > 100 µM (inactive) |  |  |  |  | 
O=C1c2ccccc2C(=O)N1Cc1ccccc1-c1c2nc(c(-c3ccccc3CN3C(=O)c4ccccc4C3=O)c3ccc([nH]3)c(-c3ccccc3CN3C(=O)c4ccccc4C3=O)c3nc(c(-c4ccccc4CN4C(=O)c5ccccc5C4=O)c4ccc1[nH]4)C=C3)C=C2 | > 100 µM (inactive) | > 100 µM (inactive) | > 100 µM (inactive) | > 100 µM (inactive) | > 100 µM (inactive) | > 100 µM (inactive) | > 100 µM (inactive) | 31.2 µM (inactive) | > 100 µM (inactive) | > 100 µM (inactive) | > 100 µM (inactive) | > 100 µM (inactive) | > 100 µM (inactive) | > 100 µM (inactive) |  |  |  |  |  | 
O=c1c2cc(I)ccc2nc(S)n1Cc1ccccc1 | > 100 µM (inactive) | 9.08 µM (inactive) | 4.49 µM (inactive) | 20.6 µM (inactive) | 37.8 µM (inactive) |  | 16.6 µM (inactive) | 9.25 µM (inactive) | 35.6 µM (inactive) | 27.5 µM (inactive) | 43.2 µM (inactive) | 59 µM (inactive) | 8.75 µM (inactive) | 30.7 µM (inactive) | 5.52 µM (inactive) | 13.1 µM (inactive) | 13.7 µM (inactive) | 83.6 µM (inactive) | 20.2 µM (inactive) | 19.2 µM (inactive)
Cc1cc(NS(=O)(=O)c2ccc(NC(=O)COC(=O)c3cccc4c(=O)c5ccccc5[nH]c34)cc2)no1 | > 100 µM (inactive) | > 100 µM (inactive) | > 100 µM (inactive) | > 100 µM (inactive) | > 100 µM (inactive) | > 100 µM (inactive) | > 100 µM (inactive) | > 100 µM (inactive) | > 100 µM (inactive) | > 100 µM (inactive) | > 100 µM (inactive) | > 100 µM (inactive) | > 100 µM (inactive) | > 100 µM (inactive) | > 100 µM (inactive) |  |  |  |  | 
COC(=O)C(CC(C)C)NC(=O)NC12CC3CC(CC(F)(C3)C1)C2 (stereo not given) | > 100 µM (inactive) | > 100 µM (inactive) | > 100 µM (inactive) | 27.1 µM (inactive) | > 100 µM (inactive) | > 100 µM (inactive) | > 100 µM (inactive) | > 100 µM (inactive) | > 100 µM (inactive) | > 100 µM (inactive) | > 100 µM (inactive) | > 100 µM (inactive) | 50.6 µM (inactive) |  | > 100 µM (inactive) |  |  |  |  | 
CC(C)=CCc1c(O)cc(O)c2c1OC(c1ccc(O)cc1)C(O)C2=O (stereo not given) | > 10 µM (inactive) | 26.5 µM (inactive) | 25.5 µM (inactive) | 26.8 µM (inactive) | 18.7 µM (inactive) | 30.2 µM (inactive) | 20.3 µM (inactive) | 22.6 µM (inactive) | 20.2 µM (inactive) | 38.4 µM (inactive) | 23.3 µM (inactive) | 36.4 µM (inactive) | 18.3 µM (inactive) |  | 25.6 µM (inactive) |  |  |  |  | 
Cc1ccc(Sc2ccccc2[N+](=O)[O-])cc1 | 21.9 µM (inactive) | 29.4 µM (inactive) | 43.7 µM (inactive) | 5.71 µM (inactive) | 27.4 µM (inactive) | 32.4 µM (inactive) | 18 µM (inactive) | 29 µM (inactive) | 18.1 µM (inactive) | 34.4 µM (inactive) | 21.9 µM (inactive) | 25.9 µM (inactive) | 19.4 µM (inactive) | 31.3 µM (inactive) | 28.6 µM (inactive) |  |  |  |  | 
COC(=O)C(Cc1nc2ccc(Cl)cc2nc1O)/C(=N/O)C(=O)Nc1cccc(Cl)c1C (stereo not given) | > 100 µM (inactive) | > 100 µM (inactive) | > 100 µM (inactive) | 65.6 µM (inactive) | > 100 µM (inactive) | > 100 µM (inactive) | 88.1 µM (inactive) | > 100 µM (inactive) | > 100 µM (inactive) | > 100 µM (inactive) | > 100 µM (inactive) | > 100 µM (inactive) |  | > 100 µM (inactive) | 10.1 µM (inactive) |  |  |  |  | 
CC(C)OC(=O)C1Cc2c([nH]c3ccccc23)C(c2ccccc2)N1 (stereo not given) | 42.5 µM (inactive) | 97.1 µM (inactive) | 93.8 µM (inactive) | 18.3 µM (inactive) | > 100 µM (inactive) | 23.6 µM (inactive) | 23.8 µM (inactive) | 81.7 µM (inactive) | 50.1 µM (inactive) | > 100 µM (inactive) | 42.5 µM (inactive) | > 100 µM (inactive) | 55 µM (inactive) |  | 89.3 µM (inactive) |  |  |  |  | 
CCOC(=O)/C(C#N)=C1/C(O)=C(C(=O)OC)C(C(=O)OC)=C1C(=O)OC.c1ccncc1 | > 100 µM (inactive) | > 100 µM (inactive) | > 100 µM (inactive) | > 100 µM (inactive) | > 100 µM (inactive) | > 100 µM (inactive) | > 100 µM (inactive) | > 100 µM (inactive) | > 100 µM (inactive) | > 100 µM (inactive) | > 100 µM (inactive) | > 100 µM (inactive) | > 100 µM (inactive) |  | > 100 µM (inactive) |  |  |  |  | 
CCOc1cccc2sc(N)nc12 | > 100 µM (inactive) | > 100 µM (inactive) | > 100 µM (inactive) | > 100 µM (inactive) | > 100 µM (inactive) | > 100 µM (inactive) | > 100 µM (inactive) | > 100 µM (inactive) | > 100 µM (inactive) | > 100 µM (inactive) | > 100 µM (inactive) | > 100 µM (inactive) | > 100 µM (inactive) |  | 49 µM (inactive) |  |  |  |  | 
C[N+](C)(C)CC(=O)N/N=C(\CCC(=O)NCCc1ccccc1)CC(=O)c1ccccc1 | > 100 µM (inactive) | > 100 µM (inactive) | > 100 µM (inactive) |  | > 100 µM (inactive) | > 100 µM (inactive) |  | > 100 µM (inactive) | > 100 µM (inactive) | > 100 µM (inactive) |  | > 100 µM (inactive) | > 100 µM (inactive) |  | > 100 µM (inactive) |  |  |  |  | 
COc1cc(C(=O)C/C(CCC(=O)Nc2ccc(Cl)cc2Cl)=N/NC(=O)C(N)=O)ccc1O | > 100 µM (inactive) | 85.7 µM (inactive) | > 100 µM (inactive) | 7.91 µM (inactive) |  | > 100 µM (inactive) |  | > 100 µM (inactive) | 76.2 µM (inactive) | > 100 µM (inactive) | > 100 µM (inactive) | > 100 µM (inactive) | > 100 µM (inactive) |  | > 100 µM (inactive) |  |  |  |  | 
COc1cccc(N[C@@H]2c3cc4c(cc3C(c3cc(OC)c(O)c(OC)c3)[C@H]3C(=O)OCC32)OCO4)c1 (stereo not given in full) | < 0.01 µM (active) | 1.65 µM (inactive) |  | 0.52 µM (active) | 0.558 µM (active) | 1.58 µM (inactive) | 1.07 µM (active) |  | 0.531 µM (active) | 1.32 µM (inactive) | 2.49 µM (inactive) | 0.891 µM (active) | 0.346 µM (active) |  | 2.56 µM (inactive) |  |  |  |  | 
COc1cc2c(c(OC)c1OC)-c1ccc(SC)c(=O)cc1[C@@H](NCc1ccc(C#N)cc1)CC2 | 0.00578 µM (active) | 0.00469 µM (active) | 0.00612 µM (active) | 0.00307 µM (active) | 0.00521 µM (active) | 0.00348 µM (active) | 0.00185 µM (active) | 0.00326 µM (active) | 0.00383 µM (active) | 0.0031 µM (active) | 0.00578 µM (active) | 0.00366 µM (active) | 0.0307 µM (active) | 0.002 µM (active) | 0.00726 µM (active) |  |  |  |  | 
C/C1=C\CC/C(C)=C/C=C(/C(C)C)CC/C(C(=O)O)=C/CC1 [CROTOCEMBRANEIC ACID] | 28.3 µM (inactive) | 42.9 µM (inactive) | 34.5 µM (inactive) | 77.3 µM (inactive) | 54.8 µM (inactive) |  | 29.4 µM (inactive) | 45 µM (inactive) | 33.9 µM (inactive) | 35.5 µM (inactive) | > 100 µM (inactive) | 42.3 µM (inactive) | 92.3 µM (inactive) | 22 µM (inactive) | 39 µM (inactive) | 56.5 µM (inactive) | 40.2 µM (inactive) | 44.4 µM (inactive) | 61.2 µM (inactive) | 61.5 µM (inactive)
